Converted amounts (≈) assume the structure as drawn. Inconclusive results are not listed. The source made the active and inactive calls. The rule behind the calls is not given here.
Tested on: M. tuberculosis H37Rv growth inhibition
Experiment: Confirmatory growth inhibition assay against Mycobacterium tuberculosis H37Rv, potency (AID 1949);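 note: bacteria grown 7 days with compound before Alamar blue readout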

Structure (SMILES)	IC50
CC(=O)Oc1cccc2ccc(/C=C/c3ccc(F)cc3)nc12	< 0.1 µg/mL
COc1cc([N+](=O)[O-])ccc1NC(=S)Nc1ccc(F)c(Cl)c1	2.76 µg/mL (≈ 7.76 µM)
COc1ccc2[nH]cc(CCNC(=S)Nc3ccc(Nc4ccccc4)cc3)c2c1	2.9 µg/mL (≈ 6.96 µM)
Cc1ccc(Oc2nc(-c3cccnc3)nc3ccccc23)cc1C	15.8 µg/mL (≈ 48.4 µM)
Cc1cc2ncn(CCCCOc3ccccc3)c2cc1C	4.6 µg/mL (≈ 15.6 µM)
O=C(Oc1c(Cl)cc(Cl)c2cccnc12)c1cccc([N+](=O)[O-])c1	6.13 µg/mL (≈ 16.9 µM)
O=c1cc(Cc2ccccc2)nc2c(-c3ccccc3)c[nH]n12	0.36 µg/mL (≈ 1.19 µM)
CCOC(=O)c1c(-c2ccccc2)c2cc(OC)ccc2n1CCCN(C)C	4.68 µg/mL (≈ 12.3 µM)
Clc1ccc(Cn2ncc3c(NCc4ccccc4)ncnc32)cc1	6.27 µg/mL (≈ 17.9 µM)
CC1CCN(c2nc(-c3cccnc3)nc3ccccc23)CC1	> 50 µg/mL (inactive)
COC(=O)c1ccc(NC(=O)CSc2ccc(F)cc2)cc1	4.02 µg/mL (≈ 12.6 µM)
CCOc1cc(CNC23CC4CC(CC(C4)C2)C3)ccc1OCc1cccs1	0.82 µg/mL (≈ 2.06 µM)
O=C(Nc1ccc(Cl)c(Br)c1)c1ccc(Cl)cc1Cl	4.23 µg/mL (≈ 11.1 µM)
O=S(=O)(Nc1cc(Br)c(O)c2ccccc12)c1ccc(F)cc1	3.06 µg/mL (≈ 7.72 µM)
O=C(Nc1ccc(C(F)(F)F)cc1)Nc1cccc(F)c1	0.76 µg/mL (≈ 2.55 µM)
COC(=O)C(C)Oc1ccc2c(=O)c(-c3ccc(Br)cc3)c(C)oc2c1 (centres undefined)	2.42 µg/mL (≈ 5.8 µM)
CCOC(=O)c1c(NC(=O)CN2CCN(CCO)CC2)sc2c1CCC(C)C2 (centres undefined)	7.17 µg/mL (≈ 17.5 µM)
CC(C)(C)c1ccc(C(=O)N2CCC(C(=O)N3CCN(c4cccc(Cl)c4)CC3)CC2)cc1	> 50 µg/mL (inactive)
CC(C)(C)c1ccc(-c2noc(-c3cccnc3)n2)cc1	4.34 µg/mL (≈ 15.5 µM)
O=C1c2cccc3cccc(c23)C(=O)N1c1ccc2[nH]c(=O)[nH]c2c1	33 µg/mL (≈ 100 µM)

Structure (SMILES)	IC50
CCCCOc1ccc(C2c3c(oc4ccc(Br)cc4c3=O)C(=O)N2CCCN2CCOCC2)cc1 (centres undefined)	3.77 µg/mL (≈ 6.79 µM)
c1ccc2c(C(c3ccncc3)c3c[nH]c4ccccc34)c[nH]c2c1	12.2 µg/mL (≈ 37.8 µM)
Cc1ccc2nc(NCc3ccccc3)[nH]c2c1	1.49 µg/mL (≈ 6.28 µM)
O=C(Nc1ccc([N+](=O)[O-])cc1)N1CCN(c2cccc(C(F)(F)F)c2)CC1	1.56 µg/mL (≈ 3.96 µM)
Cc1ccc(NC(=O)Nc2ccc([N+](=O)[O-])cc2)cc1F	13.2 µg/mL (≈ 45.6 µM)
O=C(NNC(=S)NCc1ccc(F)cc1)c1ccncc1	5.78 µg/mL (≈ 19 µM)
CCCCc1ccc(NC(=O)COc2ccc(OCC)cc2)cc1	4.9 µg/mL (≈ 15 µM)
O=C(CCN1Cc2ccccc2C1)c1ccc2c(c1)OCCO2	> 50 µg/mL (inactive)
CCCc1nc2ccccc2n1CC(O)COc1ccc(Br)cc1 (centres undefined)	4.08 µg/mL (≈ 10.5 µM)
COC(=O)COc1ccc(NC(=O)c2cccc(C)c2)cc1	0.58 µg/mL (≈ 1.94 µM)
Cc1cc(C(=O)Oc2ccccc2)ccc1[N+](=O)[O-]	1.87 µg/mL (≈ 7.27 µM)
c1ccc(CCN2CCN(c3ncnc4sc5c(c34)CCCC5)CC2)cc1	23.9 µg/mL (≈ 63.2 µM)
Cn1nnnc1Sc1ccc([N+](=O)[O-])c2ncccc12	> 50 µg/mL (inactive)
CCOC(=O)c1c(NC(=O)c2c(F)c(F)c(F)c(F)c2F)sc(C(N)=O)c1C	< 0.1 µg/mL
COc1ccc(CCNc2nc(-c3ccccn3)cs2)cc1OC	0.72 µg/mL (≈ 2.11 µM)
CC12CCC(C(=O)Nc3ccc(OC(F)(F)F)cc3)(CC1=O)C2(C)C (centres undefined)	3.09 µg/mL (≈ 8.7 µM)
COc1ccc(C2=CC(c3ccccc3Cl)n3nnnc3N2)cc1OC (centres undefined)	24.1 µg/mL (≈ 65 µM)
O=C(Nc1ccc(F)c(Cl)c1)c1ccc([N+](=O)[O-])o1	< 0.1 µg/mL
Clc1ccc(Nc2nc(-c3ccccn3)cs2)nc1	< 0.1 µg/mL
COc1ccc(C(=O)CCN2CCCC(C)C2)cc1 (centres undefined)	35 µg/mL (≈ 134 µM)

Structure (SMILES)	IC50
COC(=O)c1cccc(NC(=O)COc2ccc(C(C)(C)C)cc2)c1	> 50 µg/mL (inactive)
N#Cc1ccc(NC(=O)Nc2cccc(Cl)c2)cc1	4.6 µg/mL (≈ 16.9 µM)
Fc1ccc(Nc2nc(-c3ccccn3)cs2)cc1	0.28 µg/mL (≈ 1.03 µM)
CCOc1cc(C(=O)O/N=C(\N)Cc2ccc(Cl)cc2Cl)cc(OCC)c1OCC	38 µg/mL (≈ 83.5 µM)
COc1cccc(CN2CCC(N(CCc3ccccc3)Cc3ccccc3)CC2)c1OC	6.32 µg/mL (≈ 14.2 µM)
O=C(Nc1ccc(F)c(Cl)c1)C12CC3CCC(CC(C3)C1)C2	< 0.1 µg/mL
Cc1ccc(NC(=O)c2cc3cc(Cl)cc(Cl)c3oc2=O)c(C)c1	1.1 µg/mL (≈ 3.04 µM)
COC(=O)COc1ccc2c(=O)c(-c3ccc(Cl)cc3)coc2c1	0.99 µg/mL (≈ 2.87 µM)
CCC(=O)NC(=S)Nc1ccc(N2CCCCC2)cc1	3.52 µg/mL (≈ 12.1 µM)
Cc1ccc(NC(=O)C23CC4CCC(CC(C4)C2)C3)cc1	0.19 µg/mL (≈ 0.67 µM)
COc1ccc(-c2nn(-c3ccccc3)cc2CNCc2ccccc2)cc1	6.04 µg/mL (≈ 16.3 µM)
COc1ccc(-c2cc(C(=O)Nc3ccc(C(=O)N4CCOCC4)cc3)c3cc(C)ccc3n2)cc1	> 50 µg/mL (inactive)
O=C(CNS(=O)(=O)c1ccc([N+](=O)[O-])cc1)OCc1c(F)cccc1Cl	17.3 µg/mL (≈ 43 µM)
O=C(OCc1ccccn1)c1ccc(COc2cccc3ccccc23)cc1	6.98 µg/mL (≈ 18.9 µM)
COc1cc2c(cc1NC(=O)C(=O)NCCCN1CCOCC1)oc1ccccc12	> 50 µg/mL (inactive)
CCN(CC)CCC(=O)c1ccc(C(C)C)cc1	47.6 µg/mL (≈ 193 µM)
CCOc1ccc(S(=O)(=O)Nc2ccc(C(F)(F)F)cc2)cc1	6.25 µg/mL (≈ 18.1 µM)
CCc1cc2c(=O)c(-c3ccc4c(c3)OCCCO4)coc2cc1OC(C)C(=O)OC (centres undefined)	39.9 µg/mL (≈ 94.1 µM)
CCOC(=O)c1c(NC(=O)c2cc3ccccc3oc2=O)sc(C)c1-c1ccccc1	> 50 µg/mL (inactive)
